Experimental data reported in patent US8470587B2, “129Xe biosensors and their use” (The Trustees of the University of Pennsylvania, priority 2006, dated 2013).
Ends that are not written are not given here.

What was measured:
[1] = tested on: cells; test: cytotoxicity, standard MTT assay; type: cell-based; settings: 1-100 μM, 24 h soak, average of four trials
Method: Cytotoxicity was assessed using a standard MTT assay protocol.

[2] = tested on: CAPAN-2; test: cellular uptake by confocal microscopy; type: cell-based; settings: 15 minutes incubation; 2 μM, 2 mM; cells expressing αvβ3 integrin
Method: (§1) Cells were incubated with 2 mM tetraRGD-cryptophane for 15 minutes, washed, and imaged via confocal microscope. […] A-B) CAPAN-2, C-D) HFL-1, E-F) NCI-H1975, G-H) human red blood cells.
(§2) Cellular uptake was confirmed via confocal microscopy. Cells were incubated with 2 μM tetraRGD-cryptophane for 15 minutes, washed, and imaged via confocal microscope. […] A-B) CAPAN-2, C-D) HFL-1, E-F) NCI-H1975, G-H) human red blood cells.

[3] = tested on: HFL-1; test: cellular uptake by confocal microscopy; type: cell-based; settings: 15 minutes incubation; 2 μM, 2 mM; cells expressing αvβ3 integrin
Method: as §1, §2

[4] = tested on: NCI-H1975; test: cellular uptake by confocal microscopy; type: cell-based; settings: 15 minutes incubation; 2 μM, 2 mM; cells expressing αvβ3 integrin
Method: as §1, §2

[5] = tested on: human red blood cells; test: cellular uptake by confocal microscopy; type: cell-based; settings: 15 minutes incubation; 2 μM, 2 mM; cells not expressing αvβ3; listed as tetraRGD-cryptophane
Method: as §1, §2

[6] = tested on: lung and pancreatic cancer cell lines; test: cell uptake of tetraRGD Xe biosensor, blocking by cyclic RGD peptide; type: cell-based
Excerpt: Very efficient uptake by Xe biosensors containing tetraRGD was found in lung and pancreatic cancer cell lines, and no uptake by red blood cells, as shown in FIGS. 26 and 27.

[7] = 278 K in C2D2Cl4; cited from earlier work

| Compound | cytotoxicity (cell viability relative to healthy controls) [1] | cytotoxicity (cell viability relative to healthy controls) ([1]; listed as Cy3 dye-labeled ^129Xe biosensor) | cellular uptake (fluorescence) [2] | cellular uptake (fluorescence) [3] | cellular uptake (fluorescence) [4] | cellular uptake (fluorescence) [5] | cell uptake in presence of cyclic RGD peptide [6] | KA of xenon binding [7] [M⁻¹] |
| --- | --- | --- | --- | --- | --- | --- | --- | --- |
| Cy3-labelled ^129Xe biosensor: cryptophane biosensor containing the tetra-RGD peptide (RGDRGDRGDRGD, SEQ ID. No. 30), labeled with Cy3, targeting αvβ3 integrin (also: cryptophane cage conjugated, Cy3 labeled; listed as Homo sapiens) | non-toxic | not toxic | exhibited fluorescence | exhibited fluorescence | exhibited fluorescence | showed little fluorescence | blocked |  |
| COc1cc2c3cc1OCCOc1cc4c(cc1OC)Cc1cc5c(OC)cc1Cc1cc(c(OC)cc1C4)OCCOc1cc(c(cc1OC)C3)Cc1cc(OC)c(cc1C2)OCCO5 [cryptophane-A] |  |  |  |  |  |  |  | 3900 |
